Earlier results, collected in patent publication US20240000802A1, “DIFLUPREDNATE FOR REDUCING THE ADVERSE EFFECTS OF OCULAR INFLAMMATION” (SUN PHARMA ADVANCED RESEARCH COMPANY LIMITED, priority 2020, published 2024).

In the case of CCCC(=O)O[C@]1(C(=O)COC(C)=O)CC[C@H]2[C@@H]3C[C@H](F)C4=CC(=O)C=C[C@]4(C)[C@@]3(F)[C@@H](O)C[C@@]21C [Difluprednate], the “solubility in aqueous vehicle” value is listed as “practically insoluble”.
